Assay results taken from patent US20110288052A1, “NOVEL COMPOUNDS, PHARMACEUTICAL COMPOSITIONS CONTAINING SAME, AND METHODS OF USE FOR SAME” (priority 2008, published 2011).
≈ marks a conversion by molar mass, not a printed value.

Experiments:
[1] = system: MCF-7 human breast cancer cells; experiment: XTT cytotoxicity assay, MCF-7 (M); assay type: cell-based; conditions: MCF7, MCF-7, 72 hours
Description: XTT Cytotoxicity Assay The XTT assay is a non-radioactive alternative for the [^51Cr] release cytotoxicity assay. XTT is a tetrazolium salt that is reduced to a formazan dye only by metabolically active, viable cells. The reduction of XTT is measured spectrophotometrically as OD490-OD650. To measure the cytotoxicity of specific compounds against cancer cells, 9×10^3 MCF-7 human breast cancer cells (shown in the tables as “(M)”), obtained from the American Type Culture Collection are plated per well in 96 well plates in DMEM medium with 10% fetal bovine serum, insulin, penicillin, and streptomycin. Following overnight culture at 37° C. and 5% CO2, the compounds to be tested, dissolved in DMSO, are added to the wells in 1 μl volume at the following concentrations: 80, 40, 20, 10, 5, 2.5, 1.25, and 0.625 μg/ml in triplicate. Additional concentrations are tested if required. 1 μl of DMSO is added to triplicate wells are the vehicle control. C75 is run at 40, 20, […], and 5 μg/ml in triplicate as positive controls. After 72 hours of incubation, cells are incubated for 4 hours with the XTT reagent as per manufacturer's instructions (Cell Proliferation Kit II (XTT) Roche). Plates are read at OD490 and OD650 on a Molecular Devices SpectraMax Plus Spectrophotometer. Three wells containing the XTT reagent without cells serve as the plate blank. XTT data are reported as OD490-OD650. Averages and standard error of the mean are computed using SOFTmax Pro software (Molecular Dynamics). The IC50 for the compounds is defined as the concentration of drug leading to a 50% reduction in OD490-OD650 compared to controls. The OD490-OD650 are computed by the SOFTmax PRO software (Molecular Devices) for each compound concentration. IC50 is calculated by linear regression, plotting the FAS activity as percent of control versus drug concentrations. Linear regression, best-fit line, r^2, and 95% confidence intervals are determined using Prism Version 3.0 (Graph Pad Software).

[2] = system: MCF-7 human breast cancer cells (fatty acid oxidation pathway activity); experiment: Fatty acid oxidation ([14C]palmitate to acid soluble products); assay type: cell-based; conditions: Homo sapiens, MCF7, read-out: FAO Max; for Emax at 0.098 µg/mL: at 0.098 μg/ml
Description: Measurement of Fatty Acid Oxidation and Determination of SC150 of Compounds This assay measures the degradation of [^14C]palmitate into acid soluble products and is a measure of fatty acid oxidation pathway activity in vitro. It is utilized to measure fatty acid oxidation in vitro. MCF-7 human breast cancer cells cultured as above, are plated at 2.5×10^5 cells per well in 24-well plates. Following overnight incubation, the compounds to be tested, solubilized in DMSO, are added at […], 0.39, 1.56, 6.25, 25, and 100 μg/ml in triplicate, with lower concentrations tested if necessary. DMSO is added to triplicate wells for a vehicle control. C75 is run at 5 and 10 μg/ml in triplicate as positive controls. After 1 hour of incubation, medium is removed 100 uM of [^14C] palmitate in cyclodextran and 200 uM carnitine in serum free medium (250 μl volume) is added to each well. After 30 minutes of additional incubation, the reaction is stopped by addition of 2.6N HClO4. Contents of each well are transferred to 1.5 ml Eppendorf tubes and 4N KOH is added. The tubes are incubated for 30 minutes at 60° C. 1 M NaAcetate and 3N H2SO4 is added to each tube and vortexed. The tubes are centrifuged at 1000 rpm for 5 minutes at RT. 250 μl of the supernatant is transferred to a 2 ml eppendorf tube. To each tube is added: 938 μl of chloroform:methanol (1:1), 468 μl chloroform and 281 μl of deionized water. The tubes are vortexed and centrifuged at 1000 rpm for 5 minutes at RT. 750 μl of the upper phase is transferred into a scintillation vial 5 ml of scintillant is added and vials are counted for 1 minute for ^14C. The Beckman Scintillation counter calculates the average cpm values for triplicates. The SC150 for the compounds is defined as the concentration of drug leading to a 150% increase in production of acid soluble products of [^14C] palmitate as compared to untreated controls. This is determined by plotting the average cpm for each inhibitor concentration tested, performing linear regression and computing the best-fit line, r^2 values, and 95% confidence intervals. The average cpm values are computed by the Beckman scintillation counter (Model LS6500) for each compound concentration. Computation of linear regression, best-fit line, r^2, and 95% confidence intervals are calculated using Prism Version 3.0 (Graph Pad Software). If a compound fails to achieve this 150% threshold it is considered negative. The maximum value achieved is also reported (FAO Max).

HCT116 cells = experiment: XTT cytotoxicity assay, HCT116 (H); assay type: cell-based; conditions: Homo sapiens, HCT-116
Description: (§1) XTT Cytotoxicity Assay The XTT assay is a non-radioactive alternative for the [^51Cr] release cytotoxicity assay. XTT is a tetrazolium salt that is reduced to a formazan dye only by metabolically active, viable cells. The reduction of XTT is measured spectrophotometrically as OD490-OD650. To measure the cytotoxicity of specific compounds against cancer cells, 9×10^3 MCF-7 human breast cancer cells (shown in the tables as “(M)”), obtained from the American Type Culture Collection are plated per well in 96 well plates in DMEM medium with 10% fetal bovine serum, insulin, penicillin, and streptomycin. Following overnight culture at 37° C. and 5% CO2, the compounds to be tested, dissolved in DMSO, are added to the wells in 1 μl volume at the following concentrations: 80, 40, 20, 10, 5, 2.5, 1.25, and 0.625 μg/ml in triplicate. Additional concentrations are tested if required. 1 μl of DMSO is added to triplicate wells are the vehicle control. C75 is run at 40, 20, […], and 5 μg/ml in triplicate as positive controls. After 72 hours of incubation, cells are incubated for 4 hours with the XTT reagent as per manufacturer's instructions (Cell Proliferation Kit II (XTT) Roche). Plates are read at OD490 and OD650 on a Molecular Devices SpectraMax Plus Spectrophotometer. Three wells containing the XTT reagent without cells serve as the plate blank. XTT data are reported as OD490-OD650. Averages and standard error of the mean are computed using SOFTmax Pro software (Molecular Dynamics). The IC50 for the compounds is defined as the concentration of drug leading to a 50% reduction in OD490-OD650 compared to controls. The OD490-OD650 are computed by the SOFTmax PRO software (Molecular Devices) for each compound concentration. IC50 is calculated by linear regression, plotting the FAS activity as percent of control versus drug concentrations. Linear regression, best-fit line, r^2, and 95% confidence intervals are determined using Prism Version 3.0 (Graph Pad Software). The test was also run against OVCAR3 cells (“OV”), and HCT116 cells (“H”).

OVCAR3 cells = experiment: XTT cytotoxicity assay, OVCAR3 (OV); assay type: cell-based; conditions: Homo sapiens, OVCAR-3
Description: as §1

[3] = system: Enterococcus faecalis (ATCC # 29212); experiment: Broth microdilution antimicrobial assay, E. faecalis; assay type: cell-based
Description: Antimicrobial Properties A broth microdilution assay is used to assess the antimicrobial activity of the compounds. Compounds are tested at twofold serial dilutions, and the concentration that inhibits visible growth (OD600 at 10% of control) is defined as the MIC. Microorganisms tested include Staphylococcus aureus (ATCC # 29213), Enterococcus faecalis (ATCC # 29212), Pseudomonas aerpginosa (ATCC # 27853), and Escherichia coli (ATCC # 25922). The assay is performed in two growth media, Mueller Hinton Broth and Trypticase Soy Broth.
A blood (Tsoy/5% sheep blood) agar plate is inoculated from frozen stocks maintained in T soy broth containing 10% glycerol and incubated overnight at 37° C. Colonies are suspended in sterile broth so that the turbidity matches the turbidity of a 0.5 McFarland standard. The inoculum is diluted 1:10 in sterile broth (Mueller Hinton or Trypticase soy) and 195 μl is dispensed per well of a 96-well plate. The compounds to be tested, dissolved in DMSO, are added to the wells in 5 μl volume at the following concentrations: 25, 12.5, 6.25, 3.125, 1.56 and 0.78 μg/ml in duplicate. Additional concentrations are tested if required. 5 μl of DMSO added to duplicate wells are the vehicle control. Serial dilutions of positive control compounds, vancomycin (E. faecalis and S. aureus) and tobramycin (E. coli and P. aerpginosa), are included in each run.
After 24 hours of incubation at 37° C., plates are read at OD600 on a Molecular Devices SpectraMax Plus Spectrophotometer. Average OD600 values are computed using SOFTmax Pro Software (Molecular Devices) and MIC values are determined by linear regression analysis using Prism version 3.02 (Graph Pad Software, San Diego). The MIC is defined as the concentration of compound required to produce an OD600 reading equivalent to 10% of the vehicle control reading.

[4] = Solubility problem noted during the assays; assay type: physicochemical; conditions: read-out: Sol Prob (solubility problem at concentration)
[5] = system: MCF-7 human breast cancer cells (fatty acid synthesis pathway activity); experiment: [14C]acetate incorporation into total lipids; assay type: cell-based; conditions: MCF7, [14C]acetate incorporation into lipids
Description: Measurement of [^14C]acetate Incorporation into Total Lipids and Determination of IC50 of Compounds. This assay measures the incorporation of [^14C]acetate into total lipids and is a measure of fatty acid synthesis pathway activity in vitro. It is utilized to measure inhibition of fatty acid synthesis in vitro.
MCF-7 human breast cancer cells cultured as above, are plated at 5×10^4 cells per well in 24-well plates. Following overnight incubation, the compounds to be tested, solubilized in DMSO, are added at 5, 10, and 20 μg/ml in triplicate, with lower concentrations tested if necessary. DMSO is added to triplicate wells for a vehicle control. C75 is run at 5 and 10 μg/ml in triplicate as positive controls. After 4 hours of incubation, 0.25 μCi of [^14C]acetate (10 μl volume) is added to each well.
After 2 hours of additional incubation, medium is aspirated from the wells and 800 μl of chloroform:methanol (2:1) and 700 μl of 4 mM MgCl2 is added to each well. Contents of each well are transferred to 1.5 Eppendorf tubes, and spun at full-speed for 2 minutes in a high-speed Eppendorf Microcentrifuge 5415D. After removal of the aqueous (upper) layer, an additional 700 μl of chloroform:methanol (2:1) and 500 μl of 4 mM MgCl2 are added to each tube and then centrifuged for 1 minutes as above. The aqueous layer is removed with a Pasteur pipette and discarded. An additional 400 μl of chloroform:methanol (2:1) and 200 μl of 4 mM MgCl2 are added to each tube, then centrifuged and aqueous layer is discarded. The lower (organic) phase is transferred into a scintillation vial and dried at 40° C. under N2 gas. Once dried, 3 ml of scintillant (APB #NBC5104) is added and vials are counted for ^14C. The Beckman Scintillation counter calculates the average cpm values for triplicates.
The IC50 for the compounds is defined as the concentration of drug leading to a 50% reduction in [^14C]acetate incorporation into lipids compared to controls. This is determined by plotting the average cpm for each inhibitor concentration tested, performing linear regression and computing the best-fit line, r^2 values, and 95% confidence intervals. The average cpm values are computed by the Beckman scintillation counter (Model LS6500) for each compound concentration. Computation of linear regression, best-fit line, r^2, and 95% confidence intervals are calculated using Prism Version 3.0 (Graph Pad Software).

## CCCCCCCCC1(C)SC(=O)C=C1OCC(=O)N1CCN(Cc2ccc(OC)cc2)CC1 (stereo not shown)
[1]
  IC50: 13.6 µg/mL (≈ 27.8 µM)
[2]
  Emax at 0.098 µg/mL: 83%
HCT116 cells
  IC50: 69.7 µg/mL (≈ 143 µM)
OVCAR3 cells
  IC50: 79.8 µg/mL (≈ 163 µM)

## CCCCCCCCC1(C)SC(=O)C=C1OCC(=O)N1CCN(c2ccc(C(F)(F)F)cc2)CC1 (stereo not shown)
[1]
  IC50: 50.7 µg/mL (≈ 98.9 µM)
[2]; at 1.56 μg/ml
  Emax at 1.56 µg/mL: 118%
HCT116 cells
  IC50: > 80 µg/mL
OVCAR3 cells
  IC50: > 80 µg/mL

## CCCCCCCCC1(C)SC(=O)C=C1OCC(=O)Nc1ccc(C)cc1 (stereo not shown)
[3]; Mueller Hinton Broth
  EF/MH (MIC): Neg
[3]; Trypticase Soy Broth
  EF/Tsoy (MIC): Neg
[1]
  IC50: 6.8 µg/mL (≈ 17.5 µM)
HCT116 cells
  IC50: 12.8 µg/mL (≈ 32.9 µM)
OVCAR3 cells
  IC50: 8.1 µg/mL (≈ 20.8 µM)

## CCCCCCCCC1(C)SC(=O)C=C1OCC(=O)N1CCN(c2ccc(Cl)cc2)CC1 (stereo not shown)
[1]
  IC50: 35.7 µg/mL (≈ 74.5 µM)
[2]
  Emax at 0.098 µg/mL: 79%
HCT116 cells
  IC50: 9.7 µg/mL (≈ 20.2 µM)
OVCAR3 cells
  IC50: 24.4 µg/mL (≈ 50.9 µM)

## CCCCCCCCC1(C)SC(=O)C=C1OCC(=O)Nc1ccc(S(N)(=O)=O)cc1 (stereo not shown)
[1]
  IC50: 7 µg/mL (≈ 15.4 µM)
HCT116 cells
  IC50: 8.7 µg/mL (≈ 19.1 µM)
OVCAR3 cells
  IC50: 13.4 µg/mL (≈ 29.5 µM)
[4]
  solubility: 80 µg/mL (≈ 176 µM)
[5]
  IC50: 26.3 µg/mL (≈ 57.9 µM)
